Source: patent US20230381248A1, “METHOD FOR TREATING AND/OR PREVENTING ATOPY AND ALLERGIC DISEASES BY USING BACTERIA OR COMPOSITIONS HAVING 7 ALPHA-DEHYDROXYLASE ACTIVITY, AND/OR BILE ACID RECEPTORS FXR AND/OR TGR5 AGONISTS” (NATIONAL TAIWAN UNIVERSITY HOSPITAL, priority 2022, published 2023)

Tests used:
[1] = tested on: PMN-MDSC and regulatory T-cell (Treg); test: Induction of immune-regulatory cells by FxR and TGR5 agonist pre-treatment in the OVA allergic airway disease model, flow cytometry; type: in vivo, BALB/c mice; conditions: oral gavage 30 mg/kg/day twice a week from 3 w/o; BALF, PB, BM, Spl after aerosol OVA challenge; vs vehicle control
Experimental: (§1) The model uses ovalbumin (OVA) as the allergen to induce allergic airway inflammation of the mice. Briefly, allergen sensitization was induced in 5 w/o BALB/c mice by two intraperitoneal injection (i.p.) of 50 μg ovalbumin (OVA) plus 2 mg alum at 10-14-day interval. One week after the second OVA i.p. sensitization, 30-min aerosol 5% OVA inhalation challenge (ih) was performed for 3 consecutive days.
(§2) OVA-induced allergic airway disease was induced in 5 w/o BALB/c mice according to the protocol as depicted. […] Age- and sex-matched control mice were given the vehicle containing methyl cellulose.
The effects of FXR and TGR5 signaling in inducing both innate and adaptive immune-regulatory cells (i.e., PMN-MDSC and Treg) are investigated in this example. Mice were pre-treated by FxR and TGR5 agonists, followed by allergen sensitization and induction of allergic airway disease as depicted in FIG. 6. […] BALF represents bronchoalveolar lavage fluid, PB represents peripheral blood, BM represents bone marrow, Spl represents spleen. […] FoxP3 is an intracellular specific marker of regulatory T-cell and acts as a major regulator in the development and function of regulatory T-cell. **P<0.01; ***P<0.001, comparison was made by analysis of variance (ANOVA).

[2] = tested on: OVA-induced allergic airway disease; test: Severity of OVA-induced allergic airway disease after FxR and TGR5 agonist pre-treatment; type: in vivo, BALB/c mice; conditions: oral gavage 30 mg/kg/day twice a week from 3 w/o
Experimental: as §1, §2
The effects of FxR and TGR5 signaling in alleviating the severity of OVA-induced allergic airway disease are investigated in this example Mice were pre-treated by FxR and TGR5 agonists, followed by sensitization and asthmatic response of mice as depicted in FIG. 6. One day after the 3rd aerosol OVA challenge, sera and bronchoalveolar lavage fluids (BALF) were collected and parameters reflecting the severity of allergic inflammation were tested. […] Neg Ctrl represents healthy control. N=12-14 mice/group.

CC[C@H]1[C@@H](O)[C@@H]2[C@H](C[C@H](O)[C@]3(C)[C@@H]([C@H](C)C[C@H](C)C(=O)O)CC[C@@H]23)[C@@]2(C)CC[C@@H](O)C[C@@H]12 [TGR5 agonist, 6-EMCA]
expansion of adaptive immune-regulatory cell, Treg [1]: can induce the expansion
expansion of innate immune-regulatory cells, PMN-MDSC [1]: can induce the expansion
four parameters indicative of allergic airway disease severity (seral OVA-specific IgE, BALF leukocyte counts, BALF IL-5, airway resistance to methacholine) ([2]; one day after 3rd aerosol OVA challenge): mitigated
airway disease severity ([2]; vs control mice receiving vehicle, N=12-14 mice/group): significantly milder airway disease
